Measured values published in publication PMC6385671, “An integrated-molecular-beacon based multiple exponential strand displacement amplification strategy for ultrasensitive detection of DNA methyltransferase activity” (Chemical Science, 2018).

Target: Dam MTase (Escherichia coli, UniProt P0AEE8)
Experiment: coupled fluorescence assay (molecular beacon methylation, DpnI cleavage, strand displacement amplification) with commercial Dam MTase
Format: biochemical

Chain of Dam MTase (P0AEE8 whole entry): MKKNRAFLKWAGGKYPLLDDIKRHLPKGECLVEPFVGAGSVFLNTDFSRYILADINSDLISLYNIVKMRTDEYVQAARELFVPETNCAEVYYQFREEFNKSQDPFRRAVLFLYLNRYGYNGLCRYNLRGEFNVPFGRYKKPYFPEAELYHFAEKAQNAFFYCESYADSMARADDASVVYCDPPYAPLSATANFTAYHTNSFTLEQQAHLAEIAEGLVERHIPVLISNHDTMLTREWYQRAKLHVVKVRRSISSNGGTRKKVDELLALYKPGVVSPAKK

O=c1[nH]cc(F)c(=O)[nH]1 [5-fluorouracil]
IC50: 710 nM
